Data on two molecules can be found in publication PMC6357004 (Viruses, 2018).

The target in experiment [1] is neuraminidase (NA) of recombinant influenza B/Phuket/3073/2013 H136N virus (Influenza B virus, UniProt A0A1S5RAG6, H134N). In kind it is biochemical, influenza B/Phuket/3073/2013 virus.
Experiment [2] concerns the target neuraminidase (NA) of recombinant influenza B/Phuket/3073/2013 R152K virus (Influenza B virus, UniProt A0A1S5RAG6, R150K). In kind it is biochemical, influenza B/Phuket/3073/2013 virus.
Experiment [3] deals with neuraminidase (NA) of recombinant influenza B/Phuket/3073/2013 D198E virus (Influenza B virus, UniProt A0A1S5RAG6, D197E). In kind it is biochemical, influenza B/Phuket/3073/2013 virus.
Experiment [4] deals with neuraminidase (NA) of recombinant influenza B/Phuket/3073/2013 D198N virus (Influenza B virus, UniProt A0A1S5RAG6, D197N). In kind it is biochemical, influenza B/Phuket/3073/2013 virus.
Experiment [5] has as its target neuraminidase (NA) of recombinant influenza B/Phuket/3073/2013 I222T virus (Influenza B virus, UniProt A0A1S5RAG6, I221T). In kind it is biochemical, influenza B/Phuket/3073/2013 virus.
Experiment [6] concerns the target neuraminidase (NA) of recombinant influenza B/Phuket/3073/2013 N294S virus (Influenza B virus, UniProt A0A1S5RAG6, N294S). In kind it is biochemical, influenza B/Phuket/3073/2013 virus.
For experiment [7], the system named is B/Wyoming/07/2017 (B/Yamagata lineage) D198N variant. The settings on record: cited from earlier work.
[8] abbreviates: read-out: Neuraminidase Inhibitors IC50 values.

What is called IC50 is the concentration that inhibits the measured activity by half.

Regarding `CCC(CC)[C@H](NC(C)=O)[C@@H]1[C@H](O)[C@@H](C(=O)O)C[C@H]1N=C(N)N` [Peramivir, peramivir], the “Folds (fold changes according to WT virus)” value worked out at 240 fold in experiment [1]; 572 fold in experiment [2]; 21 fold in experiment [3]; 9 fold in experiment [4]; 26 fold in experiment [5]; 46 fold in experiment [6]. Besides, the half-maximal inhibitory concentration (IC50) in experiment [1] (setting [8]) came to 177 nM; in experiment [2] (setting [8]) it was 423 nM; in experiment [3] (setting [8]), 15.5 nM; in experiment [4] (setting [8]), 6.92 nM; in experiment [5] (setting [8]), 19.5 nM; in experiment [6] (setting [8]), 33.7 nM.

In the case of `CC(=O)N[C@H]1[C@H]([C@H](O)[C@H](O)CO)OC(C(=O)O)=C[C@@H]1N=C(N)N` [Zanamivir, zanamivir], the susceptibility phenotype entry in experiment [7] is listed as “susceptible”.
